Patent publication US12291504B2 (University of Pittsburgh—Of the Commonwealth System of …, priority 2018, dated 2025)
pKi: −log10 of the molar value.

Columns and labels:
[1] = target: SULT1A3 spin-labeled at Cys 234 (Homo sapiens, UniProt P0DMM9, K234C); test: Initial-rate parameters, spin-labeled SULT1A3 mutant 234
Method: (§4) Covalent Tagging of SULT1A3 Cys Constructs. Labeling of the SULT1A3 Cys constructs was performed as described previously (17,18,21). Briefly, 3-maleimido-PROXYL (spin label) or N-cyclohexylmaleimide (diamagnetic control) was added to an enzyme containing solution at 20-fold excess over reactive Cys. Unreacted Cys was monitored using DNTB (17,18,21); reactions were considered complete when >98% of the Cys was labeled. Reaction conditions: SULT1A3 (50 μM, monomer), 3-maleimido-PROXYL or N-cyclohexylmaleimide (1.0 mM), PAP (0.50 mM), KPO4 (50 mM), pH 7.5, 4±2° C. To prepare samples for NMR, reaction mixtures were dialyzed three times against 40 volumes of PAP (0.50 mM), KPO4 (50 mM), pD 7.4, D2O (>95%), 4±2° C.
(§5) Initial-Rate Studies. Initial-rate parameters for the labeled or mutant SULT1A3 constructs were determined using a previously described 1-HP assay (25). […] Reactions were monitored via fluorescence change associated with the conversion of 1-HP to 1-HP-S (λex=325 nm, λem=370 nm). Keq for the 1-HP sulfonation reaction is −250. Given the reaction conditions outlined above, ≥99% of 1-HP is converted to 1-HP-S, and ˜0.4% of PAPS is converted to PAP at equilibrium. […] Reaction progress curves were analyzed to obtain initial-rate parameters as described previously (26,27).

[2] = target: SULT1A3 (Homo sapiens, UniProt P0DMM9); test: Pre-steady state binding of PAP to SULT1A3 (stopped-flow fluorescence); design: Wild-type and mutant SULT1A3 coding regions were inserted into a pGEX-6P expression vector; N-His/GST/MBP triple-tag (N, cleaved yes); made in house; host or cells: E. coli BL21(DE3); conditions: PAP release, saturating CMP8
Chain of SULT1A3 (P0DMM9 whole entry): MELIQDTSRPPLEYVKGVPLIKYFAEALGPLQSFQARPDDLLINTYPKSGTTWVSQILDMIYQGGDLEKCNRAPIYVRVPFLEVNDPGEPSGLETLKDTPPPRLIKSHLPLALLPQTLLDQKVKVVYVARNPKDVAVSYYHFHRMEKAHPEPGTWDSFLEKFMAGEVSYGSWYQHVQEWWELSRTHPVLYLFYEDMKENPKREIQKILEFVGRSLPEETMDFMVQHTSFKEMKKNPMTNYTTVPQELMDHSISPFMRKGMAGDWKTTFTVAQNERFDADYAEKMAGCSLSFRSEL
Method: The effect of CMP8 on PAP binding to SULT1A3 was monitored using a stopped-flow spectrofluorimeter (λex=290 nm, λem≥330 nm (cutoff filter)). […] Each kobs value was determined in triplicate and the averaged values are shown. kon and koff are given, respectively, by the slopes and intercepts obtained from linear least-squares fitting of the kobs vs [PAP] plots.
(§1) Pre-Steady State Binding Studies. The pre-steady state binding of PAP to SULT1A3 was monitored via ligand-induced enzyme fluorescence changes in SULT1A3 using an Applied Photophysics SX20 stopped-flow spectrofluorimeter (32). […] All reactions were pseudo first order in [PAP]. The observed rate constant (kobs) at a given [PAP] was taken as the average of three independent progress curves each obtained from a single-exponential fit of 6-9 averaged, binding progress curves. The rate constants, kon and koff, were obtained from the slopes and intercepts predicted by linear least-squares analysis of four-points kobs vs [PAP] plots.
Given that CMP8 interacts with the SULT1A3 cap, it was reasoned it might inhibit by stabilizing the cap-closed form(s) of the enzyme. To test this hypothesis, the microscopic rate constants for nucleotide binding and release were determined in the presence and absence of saturating CMP8. The binding reactions were monitored via intrinsic fluorescence changes associated with ligand binding (30-32) (see, Methods). The resulting kobs vs [PAP] plots are presented in FIG. 4. kon and koff are obtained, respectively, from the slopes and intercepts of the plots (30,31), see Table C. […] Thus, CMP8 does indeed slow nucleotide release by increasing Kiso and thus stabilizing the closed form of the cap.
as §1, with “(29).” for “(32).”

[3] = target: T1, SULT1A3 L67G (Homo sapiens, UniProt P0DMM9, L67G); test: Binding-site mutation effect on Ki CMP8, L67G; type: biochemical; conditions: L67G versus wild type
T1 construct: N-His/GST/MBP triple-tag (N, cleaved yes); made in house; host or cells: E. coli BL21(DE3)
T1 sequence (P0DMM9 whole entry L67G): as the sequence (P0DMM9 whole entry) above, with L67G counted along it
Method: Initial-Rate Studies. Initial-rate parameters for the labeled or mutant SULT1A3 constructs were determined using a previously described 1-HP assay (25). Briefly, reactions were initiated by addition of PAPS (0.50 mM, 17×Km) to a solution containing enzyme (20 nM, active sites), 1-HP (2.0 μM, ˜24×Km), and KPO4 (50 mM), pH 7.5, 25±2° C. Reactions were monitored via fluorescence change associated with the conversion of 1-HP to 1-HP-S (λex=325 nm, λem=370 nm). Keq for the 1-HP sulfonation reaction is […]. Given the reaction conditions outlined above, ≥99% of 1-HP is converted to 1-HP-S, and ˜0.4% of PAPS is converted to PAP at equilibrium. […] Reaction progress curves were analyzed to obtain initial-rate parameters as described previously (26,27).
Inhibition studies. Inhibition parameters were determined under conditions identical to those described above (see, Initial-Rate Studies) except that [1-HP] was increased to 5.0 μM (˜61×Km) and inhibitor concentration was varied between 0.20-20×Ki. Ki was obtained using a least-squares fit to the following partial inhibition equation (25,28): v=kcat·(Ki+(1/kcat inh)·[I])/(Ki+[I]), where kcat inh is enzyme turnover at saturating substrates and allosteric inhibitor.
Confirming the Structure. The structure was validated by testing its ability to predict the consequences of mutations on the initial-rate parameters of the enzyme. […]

[4] = target: SULT1A3 spin-labeled at Cys 198 (Homo sapiens, UniProt P0DMM9, E198C); test: Initial-rate parameters, spin-labeled SULT1A3 mutant 198
Chain of SULT1A3 spin-labeled at Cys 198 (P0DMM9 whole entry E198C): as the sequence (P0DMM9 whole entry) above, with E198C counted along it
Method: as §4, §5

[5] = target: Rhesus Macaque (1A3) (Macaca mulatta, UniProt A0A5F7ZQH3); test: Inhibition of SULT1A3 homologues in different species: Rhesus Macaque; type: biochemical
Chain of Rhesus Macaque (1A3) (A0A5F7ZQH3 1-295): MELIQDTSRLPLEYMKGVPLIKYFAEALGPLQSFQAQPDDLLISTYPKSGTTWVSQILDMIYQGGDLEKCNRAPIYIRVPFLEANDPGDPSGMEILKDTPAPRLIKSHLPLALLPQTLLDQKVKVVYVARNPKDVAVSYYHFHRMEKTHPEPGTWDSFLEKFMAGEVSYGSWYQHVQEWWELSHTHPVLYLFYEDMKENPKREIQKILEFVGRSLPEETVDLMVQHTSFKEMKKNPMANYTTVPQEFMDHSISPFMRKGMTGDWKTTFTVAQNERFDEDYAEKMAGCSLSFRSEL
Method: (§2) Compounds 12, 23 and 25 were also tested for Inhibition of SULT1A3 in different species.
(§3) Inhibition of SULT1A3 Homologues in Different Species. SULT1A3 is only expressed in humans and higher primates. SULT1D1 is the isoform expressed in dogs and rodents that sulfonates neurotransmitters and is most similar to SULT1A3. Three synthesized allosteres (12, 23, and 25) were tested against both 1A3 and 1D1 from different species in order to explore testing in animal models. […] Mice have been engineered such that their SULT1A1/2 enzymes have been knocked out and replaced with the human versions of those isoforms.

[6] = target: T2, Rat (1D1) (Rattus norvegicus, UniProt G3V9R3); test: Inhibition of SULT1A3 homologues in different species: Rat; type: biochemical
T2 sequence (G3V9R3 1-295): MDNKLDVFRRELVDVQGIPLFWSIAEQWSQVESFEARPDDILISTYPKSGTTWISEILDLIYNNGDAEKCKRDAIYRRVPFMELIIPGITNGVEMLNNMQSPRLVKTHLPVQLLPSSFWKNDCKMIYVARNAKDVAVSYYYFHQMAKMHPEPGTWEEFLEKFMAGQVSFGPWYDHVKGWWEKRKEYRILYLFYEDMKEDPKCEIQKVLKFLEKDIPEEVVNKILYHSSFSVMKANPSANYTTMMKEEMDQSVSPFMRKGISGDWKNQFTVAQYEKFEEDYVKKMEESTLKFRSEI
Method: as §2, §3

Chain of SULT1A3 spin-labeled at Cys 234 (P0DMM9 whole entry K234C): as the sequence (P0DMM9 whole entry) above, with K234C counted along it

Row | SMILES | pKi [1] | koff (+CMP8)/koff (−CMP8), ratio of nucleotide off-rate constants [2] | increase in Ki CMP8 [3] [fold] | pKi [4] | Rhesus Macaque (1A3) % inh [5] | pKi ([5]; parentheses one standard error) | Rat (1D1) % inh [6] | pKi ([6]; parentheses one standard error)
1 | CC(C)Cc1ccc2cc(CO)ccc2n1 [Compound 8, (2-Isobutylquinolin-6-yl)methanol] | 7.51 | 0.41 (±0.05) | 5.3 | 7.34 | – | – | – | –
2 | CC(C)Cc1ccc2cc(CCC(N)=O)ccc2n1 [Compound 12] | – | – | – | – | 97 (2) % | 7.42 | 33 (4) % | 5.60
